The text below walks through data of ChEMBL document CHEMBL1201862, “PubChem BioAssay data set” (2004).

Common to all, as to experiment: inhibition of tumour cell growth, NCI panel, 48 h
Assay [1] concerns SR.
In assay [2] the test system is UACC-62.
Assay [3] concerns SF-539.
The subject of assay [4] is HCC 2998.
Assay [5] has as its system MOLT-4.
The subject of assay [6] is HOP-92.
For assay [7], the system named is SK-MEL-28.
Assay [8] relates to OVCAR-5.
The test system of assay [9] is UO-31.
For assay [10], the system named is TK-10.
The test system of assay [11] is Malme-3M.
In assay [12] the test system is NCI-H23.
In assay [13] the test system is DU-145.
Assay [14] relates to NCI-H460.
The subject of assay [15] is PC-3.
For assay [16], the system named is CAKI-1.
Assay [17] concerns Hs-578T.
Assay [18] relates to SNB-19.
Assay [19] deals with SNB-75.
For assay [20], the system named is LOX IMVI.

SMILES strings stand for the structures.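 A five-concentration, 48-hour dose response in 96-well plates underlies each endpoint, interpolated linearly between surrounding concentrations. GI50 = concentration required for 50% inhibition of growth.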 Active and inactive are the calls of the source. Cut-off read from the data, not from the text of the source: active = GI50 up to about 1.1 µM and inactive = higher. Bounds are passed on as bounds.

As for `CC(C)(C)OC(=O)N1CC(COS(C)(=O)=O)c2ccc(O)cc21` (stereo unspecified), the GI50 in assay [1] was 0.703 µM (active); in assay [2], 1.73 µM (inactive); in assay [3], 2.06 µM (inactive); in [4] it was 0.133 µM (active); in [5], 0.443 µM (active); in assay [6], 2.52 µM (inactive). For the same molecule, the GI50 was 2.14 µM (inactive) in [7]; 2.12 µM (inactive) in [8]; 1.97 µM (inactive) in assay [9]; 3.37 µM (inactive) in assay [10]; 1.52 µM (inactive) in assay [11]; 1.14 µM (inactive) in assay [12]. Besides, the GI50 was 0.507 µM (active) in assay [13]; 2.14 µM (inactive) in assay [14]; 1.73 µM (inactive) in [15]; 2.42 µM (inactive) in assay [16]; 2.46 µM (inactive) in assay [17]; 2.7 µM (inactive) in [18]. Moreover, the GI50 in assay [19] is 1.46 µM (inactive).

For the molecule `Cn1c(=O)oc2cc(C(=O)CSC(=S)N3CCCCCC3)ccc21`, the GI50 is 56.2 µM (inactive) in assay [1]; > 100 µM (inactive) in assay [2]; > 100 µM (inactive) in assay [3]; 78.7 µM (inactive) in assay [4]; 41.3 µM (inactive) in assay [5]; > 100 µM (inactive) in assay [6]. The GI50 in assay [7], in assay [8], in assay [9], in assay [10], in assay [11] and in assay [12] was > 100 µM (inactive) in each case. Moreover, the GI50 in assay [13] was > 100 µM (inactive); in [14] it was 52.7 µM (inactive); in assay [15], 99.1 µM (inactive); in [16], > 100 µM (inactive); in assay [17] it was 19 µM (inactive); in assay [18], > 100 µM (inactive). In addition, the GI50 in [19] was > 100 µM (inactive).

With `C=CC[C@H]1[C@H](O[Si](C)(C)C(C)(C)C)C=CC(=O)[C@@H]1CC(=O)OCC`, the GI50 in assay [1] was 15 µM (inactive); in assay [2] it was 11.9 µM (inactive); in assay [3], 17.1 µM (inactive); in [4], 12.9 µM (inactive); in assay [5], 22 µM (inactive); in assay [6], 11.5 µM (inactive). For the same molecule, the GI50 in [7] is 17.9 µM (inactive); in [8] it was 14.1 µM (inactive); in [9] it was 12.9 µM (inactive); in assay [10], 14.8 µM (inactive); in assay [11], 12.7 µM (inactive); in [12], 15.5 µM (inactive). Further, the GI50 in assay [13] was 16.4 µM (inactive); in assay [14], 14 µM (inactive); in assay [20], 17.5 µM (inactive); in assay [15], 9.59 µM (inactive); in assay [16], 12.4 µM (inactive); in assay [17], 19 µM (inactive). In addition, the values for the GI50 in assay [18] and in assay [19] were 13 µM (inactive) and 16.3 µM (inactive), respectively.

In the case of `Fc1cc(C2=C[C@H](c3ccc4c(c3)OCO4)NC(=S)N2)c(Cl)cc1Cl`, the GI50 in assay [1] is 31.9 µM (inactive); in assay [2], 35.9 µM (inactive); in [3], 46.7 µM (inactive); in [4], 23.2 µM (inactive); in assay [5], 23.4 µM (inactive); in assay [6], 25.9 µM (inactive). The GI50 in assay [7] is 40.3 µM (inactive); in assay [8], 44.1 µM (inactive); in assay [9], 39.2 µM (inactive); in assay [10] it was 28.8 µM (inactive); in assay [11], 30.7 µM (inactive); in assay [12] it was 60.8 µM (inactive). The GI50 in assay [13] was 49 µM (inactive); in assay [14], 25.5 µM (inactive); in [20] it was 37.2 µM (inactive); in [15] it was 21.4 µM (inactive); in [16], 34.8 µM (inactive); in assay [17] it was 70 µM (inactive). The GI50 was 57.4 µM (inactive) in assay [18] and 20.8 µM (inactive) in [19].

Take `CC1(C)CN=C(Nc2ccc(Cl)cc2)S1`: the GI50 is 65.6 µM (inactive) in assay [1]; 78.7 µM (inactive) in [2]; > 100 µM (inactive) in assay [3]; > 100 µM (inactive) in assay [4]; 58.5 µM (inactive) in assay [5]; 29.5 µM (inactive) in [6]. In addition, the GI50 is > 100 µM (inactive) in [7]; > 100 µM (inactive) in assay [8]; 37.2 µM (inactive) in assay [9]; 65.8 µM (inactive) in assay [10]; > 100 µM (inactive) in [11]; 74.6 µM (inactive) in [12]. The GI50 in assay [13] was > 100 µM (inactive); in [20], 78.3 µM (inactive); in assay [15] it was > 100 µM (inactive); in assay [16], > 100 µM (inactive); in assay [17], > 100 µM (inactive); in [18], > 100 µM (inactive). The GI50 in assay [19] was 70.8 µM (inactive).

Regarding `C=C1C[C@@H](O)[C@@H](Br)C(C)(C)[C@]12CCC(C)(Cl)C(Br)C2` (stereo partly specified), the GI50 is 40.8 µM (inactive) in [1]; 40.5 µM (inactive) in assay [2]; 16.8 µM (inactive) in [3]; 13.2 µM (inactive) in assay [4]; 36.4 µM (inactive) in assay [5]; 24.2 µM (inactive) in assay [6]. Besides, the GI50 in assay [7] is 55.7 µM (inactive); in [8], 0.736 µM (active); in assay [9], 59 µM (inactive); in assay [10], 1.58 µM (inactive); in assay [11], 22 µM (inactive); in assay [12], 21.1 µM (inactive). Besides, the GI50 in [13] is 62.4 µM (inactive); in assay [14], 27.3 µM (inactive); in assay [20], 21.3 µM (inactive); in [15], 0.431 µM (active); in assay [16], 34.8 µM (inactive); in [17] it was 27.4 µM (inactive). Besides, the GI50 is > 31.6 µM (inactive) in assay [18] and 18.9 µM (inactive) in assay [19].

With `Cc1c(S(=O)(=O)c2ccccc2)c(N)n(Cc2ccccc2)c1C`, the GI50 in assay [1] is > 100 µM (inactive); in assay [2] it was > 100 µM (inactive); in [3], 53.1 µM (inactive); in assay [4], > 100 µM (inactive); in assay [5], > 100 µM (inactive); in assay [6], > 100 µM (inactive). The GI50 in [7], in assay [8], in assay [9], in [10], in assay [11] and in assay [12] was > 100 µM (inactive) each time. For the same molecule, the GI50 in assay [13] is > 100 µM (inactive); in assay [14], > 100 µM (inactive); in assay [15], 38.2 µM (inactive); in assay [16], > 100 µM (inactive); in assay [17], 53.1 µM (inactive); in assay [18], > 100 µM (inactive). Also, the GI50 in [19] is > 100 µM (inactive).
